Here are results for 3 molecules from patent publication US10974081B2, “Treatment and prevention of sleep disorders” (Purdue Pharma L.P., priority 2016, dated 2021).

The test system of data set [1] is rats. The data set can be described thus: EEG/EMG sleep-wake analysis, single administration compared to zolpidem. Type of data set: in vivo, rat.
A further data set deals with chronic insomniacs. Particulars: 10 mg zolpidem, PSG in chronic insomniacs; cited from earlier work.
For data set [2], the system named is rats. As to the kind of experiment: In vivo functional observational battery (FOB). Particulars: for Increased touch response: 10 mg/kg.
The nature of data set [3]: In vivo functional observational battery (FOB). Particulars: male, Crl:CD(SD), rat, in vivo, po.
Data set [4] in a line: In vivo bioavailability after oral dosing. Particulars: male, Sprague-Dawley [Crl:CD(SD)], rat, plasma; 1 mg/kg oral, non-fasted; mean of multiple determinations.
Data set [5] in a line: Aqueous solubility at pH about 6.8. Particulars: 25 °C, pH 6.8, aqueous buffer, kinetic from dmso stock. The data set is classed as physicochemical.
The next data set can be described thus: in vivo. To be noted: male, Crl, CD(SD), rat, brain homogenate and plasma, intravenous, 0.5 mg/kg.
The next data set deals with human liver microsomes. As to the kind of experiment: In vitro metabolic stability, human liver microsomes. Particulars: 2 μM, % remaining after 30 minutes at 37° C. Type of data set: in vitro ADME. The method, then: (§1) The comparative in vitro metabolic stabilities of Compounds (1F), […], and W-212393 were determined upon exposure to human liver microsomes or rat liver microsomes according to a procedure disclosed in, e.g., Example 14 of U.S. Pat. No. 9,290,488, which is hereby incorporated by reference in its entirety. Liver microsomes from Crj;CD rats or humans were incubated with 2 μM of each tested compound; thereafter, the supernatant was analyzed by HPLC-MS for the concentration of the tested compound present. Human liver microsomes, pooled, 20 mg/mL, were obtained from […] #H0610). […] Alternatively and if desired, rat liver microsomes can be obtained commercially from, e.g., XenoTech (Sprague-Dawley rat liver microsomes, pooled, 20 mg/mL, cat #R1000). β-NADPH (β-nicotinamide adenine dinucleotide 2'-phosphate reduced tetrasodium salt hydrate) was obtained from Oriental Yeast Co., Ltd. (Tokyo, Japan). Each tested compound, present at an initial concentration of 2 μM, was incubated at 37° C. in the presence of 0.5 mg/mL of either human microsomes or rat microsomes in suspension in 50 mM Tris-HCl buffer (7.4 pH), 150 mM KCl, 10 mM MgCl2, and 1 mM β-NADPH. Incubation was initiated upon the addition of a 100-fold concentrated solution of the tested compound to one of the microsome preparations. Incubation was terminated by addition of a two-fold volume of a 1/1 mixture of acetonitrile/methanol after either 0 minutes or 30 minutes of incubation at 37° C. Thereafter, proteins and other macromolecules from the microsome preparation were removed by centrifugation. All incubations were conducted in duplicate. […] The HPLC system consisted of a Waters 2795 separations module (Waters Corp., Milford, Mass.) equipped with an inline degasser, temperature controlled auto-sampler, and column oven. The analytical column was a Waters […], 2.1 mm×20 mm column. The mass analyzer was a Waters ZQ, single quadrupole mass spectrometer equipped with an electrospray ionization source operating in the positive ionization mode and utilizing a stainless steel spray capillary. […]
On the technique in general: Liver microsomes are a subcellular fraction often used to study metabolism.

Data set [6] can be described thus: Rat protein binding, equilibrium dialysis of rat plasma. Type of data set: in vitro ADME. Particulars: rat, rat plasma, 2 μg/mL, 24 hours dialysis at 37° C. Here is the method: The extent of in vitro binding of Compound (1F), […], or W-212393 to rat plasma was determined as an assessment of the protein binding of each compound, i.e., compound unavailable for modulating receptor activity. Plasma from rats containing a tested compound in one chamber of a dialysis cell was dialyzed with PBS in the other chamber; thereafter, the supernatant from each chamber was analyzed for the concentration of the tested compound present. A cell suitable for equilibrium dialysis was used in the determinations. The dialysis membrane described in Example 10 (with molecular mass cutoff of 12,000-14,000 Da) separated the dialysis cell into two chambers. The membrane was soaked with purified water and PBS before being placed into the dialysis cell. 4 μL of an iv formulation of each tested compound was added to 996 μL of rat plasma, the latter obtained using syringe containing heparin and EDTA by the procedure described in Example 10, to provide a plasma sample with a tested compound concentration of 2 μg/mL. 450 μL of the plasma sample was applied to one chamber (plasma chamber) of the dialysis cell. A 450 μL aliquot of PBS was applied to the other chamber (PBS chamber) of the dialysis cell. The dialysis study was conducted in duplicate for each tested compound. After 24 hours of equilibrium dialysis at 37° C., 30 μL of liquid from the plasma chamber of the dialysis cell was collected and to this was added 270 μL of fresh PBS (this combination was designated Sample “1”). Then, 270 μL of liquid from the PBS chamber of the dialysis cell was collected and to this was added 30 μL of control rat plasma (i.e., rat plasma never exposed to any test compound, this combination was designated Sample “2”). Thereafter, each sample was mixed well and stored in a freezer until the next analysis step. After the protein precipitated in the freezer, each supernatant thusly obtained was analyzed by LC-MS-MS for unbound test compound. […] Thereafter, the percentage of rat protein-bound (“RPB”) tested compound was calculated as follows: […]
Background: Equilibrium dialysis compares concentrations on both sides of a semipermeable membrane.

A further data set concerns rat liver microsomes. As to the kind of experiment: In vitro metabolic stability, rat liver microsomes. Type of data set: in vitro ADME. Particulars: 2 μM, % remaining after 30 minutes at 37° C. The method, then: as §1
The mark [7] stands for this setting: 30 mg/kg, 1 h after administration.
Setting [8] is: 30 mg/kg, 2 h after administration.
Setting [9] is: 30 mg/kg, 4 h after administration.
The mark [10] stands for this setting: 30 mg/kg, 6 h after administration.
Where [11] appears, read: 30 mg/kg, 8 h after administration.
[12] abbreviates: 30 mg/kg, 24 h after administration.
Where [13] appears, read: 300 mg/kg, 1 h after administration.
Setting [14] is: 300 mg/kg, 2 h after administration.
Where [15] appears, read: 300 mg/kg, 4 h after administration.
[16] abbreviates: 300 mg/kg, 6 h after administration.
[17] abbreviates: 300 mg/kg, 8 h after administration.
The mark [18] stands for this setting: 300 mg/kg, 24 h after administration.

Converted amounts (≈) assume the structure as drawn. Read-outs that look alike come from different tables or passages of the source.

For `Cc1ccc(-c2nc3ccc(C)cn3c2CC(=O)N(C)C)cc1` [zolpidem, reference compound], in the data set with rats [1] (single zolpidem dose of 10 mg/kg oral), the overall sleep effect entry is given as “sleep-enhancing effect”. Moreover, the “effect on percentage of time spent in REM sleep” value with rats [1] (zolpidem 10 mg/kg oral (FIG. 17B, 18B)) is “no significant effects”. Further, the “NREM sleep versus vehicle” value with rats [1] (zolpidem 10 mg/kg oral, 3 hour block 0-3 hours after dosing (FIG. 18C)) is listed as “significant increase”. In addition, in the data set on rats [1] (zolpidem 10 mg/kg oral, 3 hour blocks, 0-12 hours after administration (FIG. 18A)), the wakefulness versus vehicle entry is “decreased tendency”. Moreover, the “percentage of time spent in wakefulness” value is “about 46%” with rats [1] (zolpidem 10 mg/kg oral, at 1 hour after dosing (FIG. 17A)); around 43% in the data set with rats [1] (zolpidem 10 mg/kg oral, at 10 hours after dosing (FIG. 17A)); “about 69%” in the data set on rats [1] (zolpidem 10 mg/kg oral, at 15 hours after dosing, lights-on period (FIG. 17A)). The “percentage of time spent in NREM sleep” value is “about 53%” in the data set with rats [1] (zolpidem 10 mg/kg oral, at 1 hour after dosing (FIG. 17C)) and around 30% with rats [1] (zolpidem 10 mg/kg oral, at 15 hours after dosing (FIG. 17C)). Also, the “Mean percent SE higher than placebo group” value in the data set with chronic insomniacs is listed as 7%.
The NOAEL is the highest dose or exposure tested at which no adverse effect was seen. On to `C[C@@H]1C[C@@H]2C[C@H](C1)C[C@@H](N1[C@@H]3CCC[C@H]1C[C@@H](n1c(=O)c(C(=O)O)nc4ccccc41)C3)C2` [Compound 405], for which the Increased touch response with rats [2] (1 h after administration) is given as 1 of 6; in the data set on rats [2] (2 h after administration) it was “N”; in the data set on rats [2] (4 h after administration) it was “N”; in the data set with rats [2] (6 h after administration) it was “N”; in the data set on rats [2] (8 h after administration), “N”; in the data set on rats [2] (24 h after administration) it was “N”. Also, the Biting behavior entry with rats [2] (setting [7]) was “N”; in the data set on rats [2] (setting [8]) it was “N”; with rats [2] (setting [9]), “N”; in the data set on rats [2] (setting [10]), 3 of 6; in the data set on rats [2] (setting [11]), “N”; in the data set with rats [2] (setting [12]), “N”. Further, the Biting behavior entry in the data set on rats [2] (100 mg/kg, 1 h after administration) is reported as “N”; with rats [2] (100 mg/kg, 2 h after administration) it was “N”; with rats [2] (100 mg/kg, 4 h after administration) it was “N”; in the data set with rats [2] (100 mg/kg, 6 h after administration), 1 of 6; in the data set with rats [2] (100 mg/kg, 8 h after administration), 1 of 6; in the data set on rats [2] (100 mg/kg, 24 h after administration), “N”. Also, the Biting behavior entry is “N” with rats [2] (setting [13]); “N” in the data set on rats [2] (setting [14]); “N” in the data set with rats [2] (setting [15]); 2 of 6 in the data set on rats [2] (setting [16]); 1 of 6 with rats [2] (setting [17]); “N” with rats [2] (setting [18]). Moreover, the Jumping entry with rats [2] (setting [7]) is recorded as “N”; in the data set with rats [2] (setting [8]), “N”; in the data set with rats [2] (setting [9]) it was “N”; with rats [2] (setting [10]), 1 of 6; in the data set on rats [2] (setting [11]), “N”; in the data set on rats [2] (setting [12]) it was “N”. In addition, the Jumping result in the data set on rats [2] (setting [13]) was “N”; with rats [2] (setting [14]) it was “N”; in the data set on rats [2] (setting [15]) it was “N”; with rats [2] (setting [16]), 1 of 6; in the data set on rats [2] (setting [17]), 2 of 6; in the data set with rats [2] (setting [18]), “N”. In addition, in [3], the NOAEL turned out to be 10 mg/kg.
As usually defined, the bioavailability is the share of a dose that reaches the circulation, judged against a reference dose that is usually intravenous. One may read the solubility as the dissolved amount per volume that the medium holds. A word on the Kp: it is the ratio of the level in a tissue or fluid to that in plasma or blood. A word on the fraction unbound: it is free concentration divided by total concentration. The molecule `C[C@@H]1C[C@@H]2C[C@H](C1)C[C@@H](N1[C@@H]3CCC[C@H]1C[C@@H](n1c(=O)c(C(=O)O)nc4ccccc41)C3)C2` [Compound 405K] gave a bioavailability in data set [4] of 63.7%. The solubility at 16 h in [5] (50 mM phosphate buffer, second procedure (50 mM phosphate buffer, HPLC), read-out: Solubility at pH 6.8) is 5 µM (≈ 2.25 µg/mL); in [5] (first procedure (JP2 solution, LC-MS), read-out: Solubility at pH 6.8), 8 µM (≈ 3.6 µg/mL); in data set [5] (pH of about 6.8, average of two determinations, read-out: aqueous solubility, average), around 6.5 µM (≈ 2.92 µg/mL). Further, the Kp at 30 min in the data set “in vivo” stood at 0. Also, the “Human Metabolic Stability (%)” value with human liver microsomes is 95.1%. For the same molecule, the fraction unbound at 24 h, 2 μg/mL in data set [6] was around 0.14. For the same molecule, in the data set with rat liver microsomes, the “Rat Metabolic Stability (%)” value came out at 96.9%.
